Patent US20240374616A1, “USE OF TERPENOIDS IN THE TREATMENT OF MASTOCYTOMA” (ARJIL BIOTECH HOLDING COMPANY LIMITED, priority 2021, published 2024)

Key:
[1] = system: RBL-2H3 cells; test: β-hexosaminidase release assay in RBL-2H3 cells; type: cell-based; details: under the safety dose, compared with DMSO, FIG. 1
Protocol: β-hexosaminidase Release Assay
RBL-2H3 cells were seeded into 24 well plate (0.5×10^5 cells/0.5 mL/well), and drug treatment was added every other day for 24 hours. On the third day, 500 μL of Anti-DNP-IgE (0.1 μg/mL) was added overnight. On the fourth day, add 160 μL DNP-BSA (0.1 μg/mL in Tyrode's buffer) to each well and react at 37° C. for 1 hour. For each well in 24 wells, 50 μL of cell supernatant was mixed with 50 μL of P-NAG (triplicates), and 96 well plates were reacted at 37° C. for 1 hour. Add 100 μL of stop buffer and measure the absorbance at 405 nm, which is the β-hexosaminidase data. For 24 well plates, add 300 μL of MTT reagent (0.5 mg/mL) to each well, react at 37° C. for 2 hours, remove the supernatant, add 300 μL of DMSO to each well, and measure the absorbance at 570 nm. The data were calculated by one-way ANOVA with Dunnett's test (* […], ** p<0.01, *** p<0.001, **** p<0.0001), and plotted with Graph pad.
The results from triplicate determinations are presented as the percentage of viable cells. Statistical analysis was performed using one-way ANOVA (Dunnett's multiple comparisons test). Results are presented as the mean ±SD from at least three independent experiments. Statistical significance is indicated (ns: no significance, ** p<0.01, *** p<0.001, **** p<0.0001, compared with DMSO).

[2] = Cell Counting Kit-8 assay of cell viability on P815 cells; type: cell-based; details: mouse, P815 mastocytoma cells, read-out: Cell viability (%) Mean ± SD
Protocol: Mouse mastocytoma cells purchased from the Bioresource Collection and Research Center (Hsinchu City, Taiwan) and were cultured with Dulbecco's modified Eagle's (DMEM) medium (Gibco, Carlsbad, California, USA) that was supplemented with 10% fetal bovine serum (Gibco, Carlsbad, California, USA), 100 U/ml penicillin, and 100 μg/ml streptomycin.
(§1) 1×10^5 cells per well of P815 cells were pretreated with terpenoids for 18 h. 5 μL Cell Counting Kit-8 reagent was added to each well, incubating for 4 h followed by optical density determination at 450 nm by a microplate reader (Tecan Sunrise). The mean optical density (OD, absorbance) from four wells of the indicated group was used to calculate the percentage of cell viability as the formula as follows: [(ODexperiment-ODblank)/(ODcontrol-ODblank)]×100%, where ODexperiment is the absorbance of cells treated with […] terpenoid-treated cells, and ODblank is the absorbance of a well with medium only. ODcontrol is the absorbance of cells treated with 0.1% DMSO only.
as §1, with “Mouse mastocytoma cells purchased from the Bioresource Collection and Research Center (Hsinchu City, Taiwan) and were cultured with Dulbecco's modified Eagle's (DMEM) medium (Gibco, Carlsbad, California, USA) that was supplemented with 10% fetal bovine serum (Gibco, Carlsbad, California, USA), 100 U/ml penicillin, and 100 μg/ml streptomycin. 1×10^5” for “1×10^5”, “terpenoids-treated” for “terpenoid-treated”

[3] = system: P815 mast cell tumor; test: H&E histopathological analysis of P815 tumor tissues; type: in vivo, mice; details: FIG. 11; 0.06 mg
Protocol: Mice were sacrificed on day 30, and tumors were removed, fixed with 10% formalin, 5% formic acid, and embedded in paraffin. Briefly, tumor sections were stained with hematoxylin and eosin (H&E) and analyzed by microscopy. Tissue sections were dewaxed with Xylene, and then treated with ethanol (100%, 95%, 75%, 50%). Tissues were stained with Hematoxylin for 1 minute and Eosin for 5 minutes.
The mice were administrated 100 μL samples intravenously every 2 days and sacrificed on the 30th day for histopathological examinations.

Structure (SMILES) | β-hexosaminidase release [1] | viability at 18 h, 1 mg/mL ([2]; 1 mg/mL) | viability at 18 h, 2 mg/mL ([2]; 2 mg/mL) | viability at 18 h, 3 mg/mL ([2]; 3 mg/mL) | viability at 18 h, 4 mg/mL ([2]; 4 mg/mL) | viability at 18 h, 5 mg/mL ([2]; 5 mg/mL) | H&E histological stain of tumor tissues [3] | viability at 18 h, 0.02 mg/mL ([2]; 0.02 mg/mL) | viability at 18 h, 0.04 mg/mL ([2]; 0.04 mg/mL) | viability at 18 h, 0.06 mg/mL ([2]; 0.06 mg/mL) | viability at 18 h, 0.08 mg/mL ([2]; 0.08 mg/mL) | viability at 18 h, 0.1 mg/mL ([2]; 0.1 mg/mL)
C=C1C(=O)O[C@H]2/C=C(\C)CC3C=C(CC/C=C(\C)CC[C@H]12)C(=O)O3 (stereo partly drawn) [AR100-DS1, Ovatodiolide] | significantly lower | 42.4 ± 1.84% | 39.5 ± 3.09% | 40.8 ± 1.25% | 43.3 ± 0.65% | 41.4 ± 1.81% | – | – | – | – | – | –
C=C(CC[C@@H](C(=O)O)[C@H]1CC[C@@]2(C)C3=CC[C@H]4C(C)(C)[C@@H](O)CC[C@]4(C)C3=CC[C@]12C)C(C)C [AR101-DS4, Dehydroeburicoic Acid] | – | – | – | – | – | – | arrest the tumor cell proliferation and cause the tumor cell nucleus aggregation | 181 ± 30.4% | 69.3 ± 4.58% | 49.7 ± 2.62% | 54.3 ± 1.85% | 49.1 ± 2.52%
